How the values were obtained:
[1] = target: T1, PDGF-receptor beta enzyme comprising the tyrosine kinase domain (Homo sapiens, UniProt P09619); assay: Inhibition of PDGF-receptor kinase activity (cell-free, PLC1 peptide, 33P Flashplate); type: biochemical; settings: PDGF-R kinase activity; for inhibition at 10 µM: compound at 10 uM, read-out: Percent Inhibition @ 10 uM; for IC50: read-out: IC50
T1 construct: from amino acid 545 to 1106 of GenBank Access NO: AAA36427
In short: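 The IC50 is the inhibitor level halving kinase activity relative to inhibitor-free wells, measured as 33P captured on a streptavidin-bound biotin-PLC1 peptide. The reaction ran 60 min at 30 °C in pH 8 Tris buffer with 1 mM DTT, 5 μM ATP and the 545–1106 kinase-domain enzyme.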

c-Abl kinase = c-Abl kinase (Abelson murine leukemia virus, UniProt P00521); assay: Inhibition of c-Abl kinase activity (cell-free, Abl peptide substrate, 33P Flashplate); type: biochemical; settings: IC50 for the c-Abl kinase activity
Sequence of c-Abl kinase (P00521 115-385): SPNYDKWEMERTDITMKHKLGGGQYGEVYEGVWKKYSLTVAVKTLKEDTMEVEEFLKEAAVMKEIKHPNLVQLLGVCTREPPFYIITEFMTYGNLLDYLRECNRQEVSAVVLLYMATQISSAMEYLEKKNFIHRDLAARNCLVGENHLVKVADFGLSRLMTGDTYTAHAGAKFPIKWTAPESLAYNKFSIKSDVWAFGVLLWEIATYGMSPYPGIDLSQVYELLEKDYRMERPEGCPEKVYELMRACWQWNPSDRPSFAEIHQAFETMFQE

T1 sequence (P09619 545-1106): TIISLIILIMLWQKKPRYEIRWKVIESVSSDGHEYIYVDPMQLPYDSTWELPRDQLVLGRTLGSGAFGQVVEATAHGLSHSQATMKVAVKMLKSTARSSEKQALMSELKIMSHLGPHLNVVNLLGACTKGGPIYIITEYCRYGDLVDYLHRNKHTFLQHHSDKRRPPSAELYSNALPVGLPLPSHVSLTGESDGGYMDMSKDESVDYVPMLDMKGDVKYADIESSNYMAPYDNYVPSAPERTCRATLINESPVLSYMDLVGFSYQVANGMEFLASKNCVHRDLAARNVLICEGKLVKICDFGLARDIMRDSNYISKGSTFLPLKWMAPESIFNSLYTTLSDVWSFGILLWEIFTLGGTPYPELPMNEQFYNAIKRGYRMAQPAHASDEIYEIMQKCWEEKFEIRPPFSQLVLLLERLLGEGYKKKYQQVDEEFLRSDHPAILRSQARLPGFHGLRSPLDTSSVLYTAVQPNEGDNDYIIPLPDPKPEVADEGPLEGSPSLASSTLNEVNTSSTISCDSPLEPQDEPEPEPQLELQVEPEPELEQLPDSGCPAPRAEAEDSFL

SMILES | inhibition at 10 µM [1] [%] | IC50 [1] [nM] | IC50 (c-Abl kinase) [nM]
COc1ccc(Nc2[nH]nc3c2Cc2ccc(C)cc2-3)cc1Cl [Compound 309, (3-Chloro-4-methoxy-phenyl)-(7-methyl-2,4-dihydro-indeno[1,2-c]pyrazol-3-yl)-amine] | 92.5 | 30.2 | 822
Cc1ccc2c(c1)-c1n[nH]c(Nc3cccc(C(C)O)c3)c1C2 (stereo not drawn) [Compound 310, 1-[3-(7-Methyl-2,4-dihydro-indeno[1,2-c]pyrazol-3-ylamino)-phenyl]-ethanol] | 95.5 | 20.2 | 1470
Fc1cccc(Nc2[nH]nc3c2Cc2ccc(F)cc2-3)c1 [Compound 334, (7-Fluoro-2,4-dihydro-indeno[1,2-c]pyrazol-3-yl)-(3-fluoro-phenyl)-amine] | 99.5 | 8.69 | 3300
Fc1cccc(Nc2[nH]nc3c2Cc2ccccc2-3)c1 [Compound 337, (2,4-Dihydro-indeno[1,2-c]pyrazol-3-yl)-(3-fluoro-phenyl)-amine] | 100 | 8.8 | 2740
Fc1ccc(F)c(Nc2[nH]nc3c2Cc2ccccc2-3)c1 [Compound 339, (2,5-Difluoro-phenyl)-(2,4-dihydro-indeno[1,2-c]pyrazol-3-yl)-amine] | 100 | 117 | 2180
COc1ccc(OC)c(Nc2[nH]nc3c2Cc2ccccc2-3)c1 [Compound 341, (2,4-Dihydro-indeno[1,2-c]pyrazol-3-yl)-(2,5-dimethoxy-phenyl)-amine] | 92.5 | 41.2 | 350
CCOc1cc2c(cc1OCC)C(C)c1c-2n[nH]c1Nc1cccc(OC)c1 (stereo not drawn) [Compound 348, (6,7-Diethoxy-4-methyl-2,4-dihydro-indeno[1,2-c]pyrazol-3-yl)-(3-methoxy-phenyl)-amine] | 97.5 | 25.3 | 11
COc1cc2c(cc1F)Cc1c-2n[nH]c1Nc1cccc(Br)c1 [Compound 358, (3-Bromo-phenyl)-(6-fluoro-7-methoxy-2,4-dihydro-indeno[1,2-c]pyrazol-3-yl)-amine] | 92 | 8.77 | 338
COc1cc2c(cc1F)Cc1c-2n[nH]c1Nc1ccc(F)c(Cl)c1 [Compound 359, (3-Chloro-4-fluoro-phenyl)-(6-fluoro-7-methoxy-2,4-dihydro-indeno[1,2-c]pyrazol-3-yl)-amine] | 98.5 | 41.5 | 143
COc1cccc(Nc2[nH]nc3c2Cc2cc(F)c(OC)cc2-3)c1 [Compound 360, (6-Fluoro-7-methoxy-2,4-dihydro-indeno[1,2-c]pyrazol-3-yl)-(3-methoxy-phenyl)-amine] | 98 | 7.5 | 77
COc1cc2c(cc1F)Cc1c-2n[nH]c1Nc1ccc(F)cc1 [Compound 361, (6-Fluoro-7-methoxy-2,4-dihydro-indeno[1,2-c]pyrazol-3-yl)-(4-fluoro-phenyl)-amine] | 100 | 11.6 | 43
COc1cc2c(cc1O)Cc1c-2n[nH]c1Nc1cccc(F)c1 [Compound 363, 3-(3-Fluoro-phenylamino)-7-methoxy-2,4-dihydro-indeno[1,2-c]pyrazol-6-ol] | 76.5 | 5.47 | 1
COc1cc2c(cc1Br)Cc1c-2n[nH]c1Nc1cccc(F)c1 [Compound 369, (6-Bromo-7-methoxy-2,4-dihydro-indeno[1,2-c]pyrazol-3-yl)-(3-fluoro-phenyl)-amine] | 100 | 18.7 | 47
COc1cccc(Nc2[nH]nc3c2Cc2cc(Br)c(OC)cc2-3)c1 [Compound 370, (6-Bromo-7-methoxy-2,4-dihydro-indeno[1,2-c]pyrazol-3-yl)-(3-methoxy-phenyl)-amine] | 94 | 12.2 | 6
CCOc1cc2c(cc1OCCCO)-c1n[nH]c(Nc3cccnc3)c1C2 [Compound 371, 3-[6-Ethoxy-3-(pyridin-3-ylamino)-2,4-dihydro-indeno[1,2-c]pyrazol-7-yloxy]-propan-1-ol] | 100 | 47.6 | 905
OCCCOc1cc2c(cc1OCCCO)-c1n[nH]c(Nc3cccc(Cl)c3)c1C2 [Compound 373, 3-[3-(3-Chloro-phenylamino)-7-(3-hydroxy-propoxy)-2,4-dihydro-indeno[1,2-c]pyrazol-6-yloxy]-propan-1-ol] | 100 | 3.77 | 10

SMILES | inhibition at 10 µM [1] [%] | IC50 [1] [nM] | IC50 (c-Abl kinase) [nM]
CCOc1cccc(Nc2[nH]nc3c2Cc2cc(OC)c(OC)cc2-3)c1 [Compound 374, (6,7-Dimethoxy-2,4-dihydro-indeno[1,2-c]pyrazol-3-yl)-(3-ethoxy-phenyl)-amine] | 100 | 14.1 | 51
CCOc1cccc(Nc2[nH]nc3c2Cc2cc(OCCCO)c(OC)cc2-3)c1 [Compound 376, 3-[3-(3-Ethoxy-phenylamino)-7-methoxy-2,4-dihydro-indeno[1,2-c]pyrazol-6-yloxy]-propan-1-ol] | 100 | 9.1 | 60
CCOc1cccc(Nc2[nH]nc3c2Cc2cc(OCC(O)CO)c(OC)cc2-3)c1 (stereo not drawn) [Compound 379, 3-[3-(3-Ethoxy-phenylamino)-7-methoxy-2,4-dihydro-indeno[1,2-c]pyrazol-6-yloxy]-propane-1,2-diol] | 100 | 8.12 | 14
Fc1cccc(Nc2[nH]nc3c2oc2ccccc23)c1 [Compound 380, (3-Fluoro-phenyl)-(2H-8-oxa-2,3-diaza-cyclopenta[a]inden-1-yl)-amine] | 99.5 | 15.3 | 327
Fc1ccc(Nc2[nH]nc3c2oc2ccccc23)cc1Cl [Compound 381, (3-Chloro-4-fluoro-phenyl)-(2H-8-oxa-2,3-diaza-cyclopenta[a]inden-1-yl)-amine] | 100 | 54.9 | 1500
CCOc1cc2c(cc1OCCCO)Cc1c-2n[nH]c1Nc1cccc(F)c1 [Compound 382, 3-[7-Ethoxy-3-(3-fluoro-phenylamino)-2,4-dihydro-indeno[1,2-c]pyrazol-6-yloxy]-propan-1-ol] | 100 | 11.9 | 19
CCOc1cc2c(cc1OCCCO)Cc1c-2n[nH]c1Nc1cccnc1 [Compound 383, 3-[7-Ethoxy-3-(pyridin-3-ylamino)-2,4-dihydro-indeno[1,2-c]pyrazol-6-yloxy]-propan-1-ol] | 93 | 25.3 | 183
CCOc1cc2c(cc1OCCCO)Cc1c-2n[nH]c1Nc1cccc(OC)c1 [Compound 384, 3-[7-Ethoxy-3-(3-methoxy-phenylamino)-2,4-dihydro-indeno[1,2-c]pyrazol-6-yloxy]-propan-1-ol] | 100 | 5.61 | 4
COc1cc2c(cc1OCCCO)Cc1c-2n[nH]c1NCc1ccccc1Cl [Compound 385, 3-[3-(2-Chloro-benzylamino)-7-methoxy-2,4-dihydro-indeno[1,2-c]pyrazol-6-yloxy]-propan-1-ol] | 98.5 | 4.07 | 12
COc1cc2c(cc1OCCCO)Cc1c-2n[nH]c1NCc1ccccc1F [Compound 386, 3-[3-(2-Fluoro-benzylamino)-7-methoxy-2,4-dihydro-indeno[1,2-c]pyrazol-6-yloxy]-propan-1-ol] | 95.5 | 11 | 20
OCCCOc1cc2c(cc1OCCCO)-c1n[nH]c(Nc3ccc(F)c(Cl)c3)c1C2 [Compound 389, 3-[3-(3-Chloro-4-fluoro-phenylamino)-7-(3-hydroxy-propoxy)-2,4-dihydro-indeno[1,2-c]pyrazol-6-yloxy]-propan-1-ol] | 98 | 15.1 | 17
COc1cc2c(cc1OCC(O)CN1CCCC1)Cc1c-2n[nH]c1NCc1c(F)cccc1F (stereo not drawn) [Compound 391, 1-[3-(2,6-Difluoro-benzylamino)-7-methoxy-2,4-dihydro-indeno[1,2-c]pyrazol-6-yloxy]-3-pyrrolidin-1-yl-propan-2-ol] | 99 | 6.8 | 14
COc1cc2c(cc1OCC(O)CN1CCCC1)Cc1c-2n[nH]c1NCc1ccccc1Cl (stereo not drawn) [Compound 396, 1-[3-(2-Chloro-benzylamino)-7-methoxy-2,4-dihydro-indeno[1,2-c]pyrazol-6-yloxy]-3-pyrrolidin-1-yl-propan-2-ol] | 99.5 | 5.13 | 2
OCCCOc1cc2c(cc1OCCCO)-c1n[nH]c(Nc3cccc(F)c3)c1C2 [Compound 398, 3-[3-(3-Fluoro-phenylamino)-6-(3-hydroxy-propoxy)-2,4-dihydro-indeno[1,2-c]pyrazol-7-yloxy]-propan-1-ol] | 96 | 6.82 | 10
COc1cccc(Nc2[nH]nc3c2Cc2cc(OCCCO)c(OCCCO)cc2-3)c1 [Compound 400, 3-[7-(3-Hydroxy-propoxy)-3-(3-methoxy-phenylamino)-2,4-dihydro-indeno[1,2-c]pyrazol-6-yloxy]-propan-1-ol] | 98.5 | 2.92 | 5
CCOc1cccc(Nc2[nH]nc3c2Cc2cc(OCCCO)c(OCCCO)cc2-3)c1 [Compound 401, 3-[3-(3-Ethoxy-phenylamino)-7-(3-hydroxy-propoxy)-2,4-dihydro-indeno[1,2-c]pyrazol-6-yloxy]-propan-1-ol] | 98.5 | 22 | 14

Reference: US7196110B2, “N-substituted tricyclic 3-aminopyrazoles as inhibitors for the treatment of cell proliferative disorders” (Janssen Phamaceutica N.V., priority 2002, dated 2007)
